Reference: patent publication US20060069132A1, “Azolecarboxamide herbicides” (priority 2004, published 2006)

Key:
lambsquarters = test: Test C pre-/postemergence herbicide test; type: in vivo, Chenopodium album; settings: preemergence; for Plant response rating (0 = no effect, 100 = complete control), Lambsquarters: 125 g ai/ha
Text: (§1) Seeds of plant species selected from bermudagrass (Cynodon dactylon (L.) Pers.), Surinam grass (Urochloa decumbens (Staph) R. D. Webster, previously named Brachiaria decumbens Stapf), cocklebur (Xanthium strumarium L.), corn (Zea mays L.), large crabgrass (Digitaria sanguinalis (L.) Scop.), woolly cupgrass (Eriochloa villosa (Thunb.) Kunth), giant foxtail (Setaria faberi Herrm.), goosegrass (Eleusine indica (L.) Gaertn.), johnsongrass (Sorghum halepense (L.) Pers.), kochia (Kochia scoparia (L.) Schrad.), lambsquarters (Chenopodium album L.), morningglory (Ipomoea coccinea L.), eastern black nightshade (Solanum ptycanthum Dunal), yellow nutsedge (Cyperus esculentus L.), pigweed (Amaranthus retroflexus L.), common ragweed (Ambrosia elatior L.), soybean (Glycine max (L.) Merr.), common (oilseed) sunflower (Helianthus annuus L.) and velvetleaf (Abutilon theophrasti Medik.) were planted and treated preemergence with test chemicals formulated in a non-phytotoxic solvent mixture which included a surfactant.
(§2) At the same time, plants selected from these crop and weed species and also winter barley (Hordeum vulgare L.), blackgrass (Alopecurus myosuroides Huds.), canarygrass (Phalaris minor Retz.), chickweed (Stellaria media (L.) Vill.), downy bromegrass (Bromus tectorum L.), green foxtail (Setaria viridis (L.) Beauv.), Italian ryegrass (Lolium multiflorum Lam.), wheat (Triticum aestivum L.), wild oat (Avenafatua L.) and windgrass (Apera spica-venti (L.) Beauv.) were treated with postemergence applications of some of the test chemicals formulated in the same manner. Plants ranged in height from 2 to 18 cm (1- to 4-leaf stage) for postemergence treatments. Plant species in the flooded paddy test consisted of rice (Oryza sativa), smallflower umbrella sedge (Cyperus difformis L.), ducksalad (Heteranthera limosa (Sw.) Willd.) and barnyardgrass (Echinochloa crus-galli (L.) Beauv.) grown to the 2-leaf stage for testing. Treated plants and controls were maintained in a greenhouse for 12 to 14 days, after which time all species were compared to controls and visually evaluated. Plant response ratings, summarized in Table C, are based on a scale of 0 to 100 where 0 is no effect and 100 is complete control. A dash (-) response means no test result.

common ragweed = test: Test C pre-/postemergence herbicide test; type: in vivo, Ambrosia elatior; set-up: key to Plant response rating, Ragweed: 0 = no effect, 100 = complete control; settings: preemergence; for Plant response rating (0 = no effect, 100 = complete control), Ragweed: 125 g ai/ha
Text: as §1, §2

bermudagrass = test: Test C pre-/postemergence herbicide test; type: in vivo, Cynodon dactylon; settings: for Plant response rating (0 = no effect, 100 = complete control), Bermudagrass: 125 g ai/ha
Text: as §1, §2

yellow nutsedge = test: Test C pre-/postemergence herbicide test; type: in vivo, Cyperus esculentus; settings: preemergence
Text: as §1, §2

morningglory = test: Test C pre-/postemergence herbicide test; type: in vivo, Ipomoea coccinea; set-up: key to Plant response rating, Morningglory: 0 = no effect, 100 = complete control; settings: preemergence
Text: as §1, §2

[1] = test system: smallflower umbrella sedge; test: Test C flooded paddy test; type: in vivo, Cyperus difformis; settings: for Plant response rating, Sedge, Umbrella: 500 g ai/ha, visual rating after 12 to 14 days
giant foxtail = test: Test C pre-/postemergence herbicide test; type: in vivo, Setaria faberi; settings: preemergence; for Plant response rating (0 = no effect, 100 = complete control), Foxtail, Giant: 125 g ai/ha
Text: as §1, §2

barnyardgrass = test: Test C flooded paddy test; type: in vivo, Echinochloa crus-galli; settings: for Plant response rating, Barnyardgrass: 500 g ai/ha, visual rating after 12 to 14 days
Outline: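 Visual rating, 0 (no effect) to 100 (complete control), vs. controls at 12–14 d in greenhouse. Postemergence: 1–4-leaf plants, 2–18 cm. Paddy: flooded, barnyardgrass at 2-leaf stage.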

eastern black nightshade = test: Test C pre-/postemergence herbicide test; type: in vivo, Solanum ptycanthum; settings: preemergence
Text: as §1, §2

[2] = 500 g ai/ha, scale 0 to 100 (0 no effect, 100 complete control), visual, 12 to 14 days
[3] = 62 g ai/ha, preemergence, scale 0 to 100, 0 no effect, 100 complete control
[4] = 250 g ai/ha, scale 0-100, preemergence
[5] = 500 g ai/ha, scale 0 to 100 (0 no effect, 100 complete control), visual, 12 to 14 days, preemergence
[6] = 125 g ai/ha, scale 0 to 100 (0 no effect, 100 complete control)
[7] = 250 g ai/ha, scale of 0 to 100, 0 is no effect, 100 is complete control
[8] = scale 0 to 100 (0 no effect, 100 complete control)
[9] = 62 g ai/ha, scale 0 to 100 (0 no effect, 100 complete control)

Compound	Plant response rating, Lambsquarters (lambsquarters; 62 g ai/ha, scale 0 to 100)	Plant response rating (0 = no effect, 100 = complete control), Lambsquarters (lambsquarters)	Plant response rating, Lambsquarters (lambsquarters; 250 g ai/ha, scale 0-100)	Plant response rating, Lambsquarters (lambsquarters; [2])	Plant response rating, Ragweed (common ragweed; 62 g ai/ha, scale 0 to 100)	Plant response rating (0 = no effect, 100 = complete control), Ragweed (common ragweed)	Plant response rating, Ragweed (common ragweed; 250 g ai/ha, scale 0-100)	Plant response rating, Ragweed (common ragweed; [2])	Plant response rating, Bermudagrass (bermudagrass; [3])	Plant response rating (0 = no effect, 100 = complete control), Bermudagrass (bermudagrass; preemergence)	Plant response rating, Bermudagrass (bermudagrass; [4])	Plant response rating, Bermudagrass (bermudagrass; [5])	Plant response rating, Morningglory (morningglory; 62 g ai/ha, scale 0 to 100)	Sedge, Umbrella plant response rating ([1]; 62 g ai/ha, scale 0 to 100)	Sedge, Umbrella plant response rating [1, 6]	Sedge, Umbrella plant response rating [1, 7]	Plant response rating, Sedge, Umbrella [1, 8]	Plant response rating, Foxtail, Giant (giant foxtail; 62 g ai/ha, scale 0 to 100)	Plant response rating (0 = no effect, 100 = complete control), Foxtail, Giant (giant foxtail)	Plant response rating, Foxtail, Giant (giant foxtail; 250 g ai/ha, scale 0-100)	further results
Cc1nn(C(C)(C)C)nc1C(=O)Nc1cccc(C(=O)N2CC=CC2)c1 [Compound 393]	100	100	100	100	20	100	100	100	60	100	100	100	60	70	75	80	85	70	90	95	Plant response rating, Nutsedge, Yellow (yellow nutsedge; 250 g ai/ha, scale 0-100): 50; Plant response rating, Foxtail, Giant (giant foxtail; [2]): 100; Barnyardgrass plant response rating (barnyardgrass; [9]): 45; Barnyardgrass plant response rating (barnyardgrass; [6]): 65; Barnyardgrass plant response rating (barnyardgrass; [7]): 75; Plant response rating, Barnyardgrass (barnyardgrass; [8]): 95
C=CCNC(=O)c1cccc(NC(=O)c2nn(C(C)(C)C)nc2CC)c1 [Compound 414]	95	95	95	100	15	45	–	65	100	100	100	100	10	–	–	–	–	75	95	100	Plant response rating, Nutsedge, Yellow (yellow nutsedge; 62 g ai/ha, scale 0 to 100): 0; Plant response rating (0 = no effect, 100 = complete control), Nutsedge, Yellow (yellow nutsedge; 125 g ai/ha): 0; Plant response rating, Nutsedge, Yellow (yellow nutsedge; [2]): 20; Plant response rating, Nightshade (eastern black nightshade; 62 g ai/ha, scale 0 to 100): 85; Plant response rating (0 = no effect, 100 = complete control), Nightshade (eastern black nightshade; 125 g ai/ha): 90; Plant response rating, Nightshade (eastern black nightshade; [2]): 100; Plant response rating (0 = no effect, 100 = complete control), Morningglory (morningglory; 125 g ai/ha): 55; Plant response rating, Morningglory (morningglory; [2]): 95; Plant response rating, Foxtail, Giant (giant foxtail; [2]): 100
CCc1nn(C(C)(C)C)nc1C(=O)Nc1cccc(C(=O)N(C)CC)c1 [Compound 384]	100	100	100	–	100	100	100	–	100	100	100	–	–	80	80	80	80	95	100	100	Plant response rating, Bermudagrass (bermudagrass; 31 g ai/ha, scale 0 to 100, 0 no effect, 100 complete control, last section of Table C (species set of preemergence test)): 65; Barnyardgrass plant response rating (barnyardgrass; [9]): 65; Barnyardgrass plant response rating (barnyardgrass; [6]): 75; Barnyardgrass plant response rating (barnyardgrass; [7]): 90; Plant response rating, Barnyardgrass (barnyardgrass; [8]): 95
